Key:
[1] = system: carrageenan-induced edema; details: rat models; cited from earlier work
[2] = system: chondrocytes of the rabbit knee joint; assay: Synthesis of type II collagen by primary culture of chondrocytes (density of 116 kD band on electrophoresis); type: cell-based; details: for Activity of recovering the synthesis of type II collagen inhibited by arachidonic acid: fatty acid added at 300 μM
Procedure: Using the primary culture of chondrocytes of the rabbit knee joint, the effects of mead acid on the synthesis of type II collagen was compared with that of other fatty acids, in particular arachidonic acid. The mead acid used was 99% 5,8,11-cis-eicosatrienoic acid ethyl ester highly purified in the same manner as in Example 1, and for arachidonic acid, oleic acid and linoleic acid, the commercially available 99% ethyl esters thereof were used. Chondrocytes were prepared from the knee joints of 4-week old Japan white rabbits in accordance with the method of Suzuki and Shimomura [Shimomurra, Y., Yoneda, T., Suzuki, F. Osteogenesis by chondrocyte from growth cartilage of rat rib., Calcif. Tissue Int., 19:179-187, 1975]. The chondrocytes were plated at 10,000 cells/well of the 96-well plate (Iwaki Glass K.K.) in (MEM medium (50 μg/ml vitamin C, 1 ng/ml b-FGF were added) supplemented with 10% bovine calf serum, and pre-incubated for two days (5% CO2, 37° C.). The fatty acids were suspended in 0.0625% HCO-60 prior to use. As the pre-treatment with the fatty acids, the plates were divided into three groups and added thereto the solvent (0.0625% HCO-60) (group A), mead acid (the final concentration, 300 μM) (group B), and arachidonic acid (the final concentration, 300 μM) (group C), and then incubated for about 5 days while the culture medium and the fatty acids were replaced with fresh ones every two days.
Subsequently, the culture medium was replaced with αMEM medium (1 μg/ml transferrin, 1 μM dexamethasone, 2 μg/ml insulin, 50 μg/ml vitamin C) and each fatty acid (mead acid, arachidonic acid, oleic acid, and linoleic acid) was added thereto to a final concentration of 300 μM followed by incubation for seven days to synthesize extracellular matrix. The culture medium and each of the fatty acids were replaced every 2 days with freshly prepared ones. Pepsin (2 mg/ml) acetate solution was added to the plate at 200 μl/well and treated at 37° C. for 24 hours. The residue was recovered from each well and was centrifuged at 15,000 rpm for 10 minutes to form a precipitate, which was then washed once with tris-EDTA buffer (pH 8.0) and dissolved in 100 μl of the SDS sample buffer.
The amount of type II collagen synthesized was determined by electrophoresing 1/10 volume of each sample solution on the multigel 4/20 (Daiichi Kagaku K.K.) and measuring the density of the 116 kD band after staining with Cooumassie Brilliant Blue.

[3] = system: rabbit model of osteoarthritis; assay: Range of motion (ROM) of the right knee joint in rabbit models of osteoarthritis prepared using arthrodesis by cast; type: in vivo; details: 0.6 ml of 1 mg/ml solution/joint, right articular cavity twice per week for five weeks; solvent group 70%
Procedure: Models of osteoarthritis were prepared using arthrodesis by cast. The animals used were 12-week old male rabbits (Kbl: NZW, Kitayama Labesu K. K.). Under anesthesia by intramuscular administration of 2 mg/kg of xylazine hydrochloride (Selactal, Bayer A. G.) and 50 mg/kg of ketamine hydrochloride (Ketalar 50 for animals, Sankyo K.K.) (hereinafter referred to as “under anesthesia”), hair was cut off the right hind leg. Then after the region from the upper thigh to the toe was covered with the stockinette and cast pad (3M Medicine K.K.), the knee joint was fixed for three weeks at a stretched and bent position by casting tape (3M Medicine K.K.). […]
In accordance with Example 2, models of osteoarthritis of the knee were prepared using arthrodesis by cast and were divided into three groups of five animals per group so that the average weight and the range of motion of joints of each group became uniform. […] In accordance with Example 2, dosage samples were administered in the right articular cavity twice per week for five weeks and ROM of the joint of the right knee was measured.

[4] = group C pretreated with arachidonic acid 300 μM (FIG. 3, sample No. 11-15)

| Activity of recovering the synthesis of type II collagen inhibited by arachidonic acid [2, 4] | SMILES | ROM at week five after the start of administration [3] | further results |
| --- | --- | --- | --- |
| – | CCCCCCCCC=CCC=CCC=CCCCC(=O)O [5,8,11-eicosatrienoic acid] | – | Anti-inflammatory effect on carrageenan-induced edema [1]: anti-inflammatory effect |
| – | CCCCC/C=C\C/C=C\C/C=C\C/C=C\CCCC(=O)O [arachidonic acid] | – | Effect of addition of fatty acid on synthesis of type II collagen ([2]; 300 μM, seven days, group A pretreated with solvent (FIG. 3, sample No. 1-5)): inhibited synthesis of type II collagen; Inhibition of type II collagen synthesis in group C pretreated with arachidonic acid ([2]; 300 μM, group C pretreated with arachidonic acid 300 μM (FIG. 3, sample No. 11-15)): more conspicuous |
| not observed | CCCCC/C=C\C/C=C\CCCCCCCC(=O)O [linoleic acid] | – | – |
| not observed | CCCCCCCC/C=C\CCCCCCCC(=O)O [oleic acid] | – | – |
| – | CCCCCCCCC=CC/C=C\CCCCC(=O)OCC [solution A, 6,9-cis-octadecadienoic acid ethyl ester] | 80.2% | – |
| – | CCCCCCCCC=CC/C=C\CCCCCCC(=O)OCC [solution B, 8,11-cis-eicosadienoic acid ethyl ester] | 83.6% | – |
